# Measured values as given in patent publication US20060062725A1, “Methods for preparing metal-carborane complexes for radioimaging and radiotherapy” (priority 2004, published 2006).
# Test: Stability of [99mTc(CO)3(OH2)3]+ prepared with the KF kit
# Assay type: physicochemical
# Conditions: prepared in the presence of KF
# Procedure: Commercially available kits contain sodium tartrate to prevent premature decomposition of [^99mTc(CO)3(OH2)3]^+. Thinking that the chelate was interfering with the fluoride mediated complexation reaction, a kit in which KF was substituted for tartrate was prepared.
substance,measurement,value
[^99mTc(CO)3(OH2)3]^+,time stable,greater than 6 h
